Test results from paper PMC2149952 (British Journal of Cancer, 1998).
Where two headings read alike, the source gives them in different places.

How the values were obtained:
[1] = parameters: method as in O'Reilly et al, 1996b; conditions: ref O'Reilly et al, 1996b; cited from earlier work
[2] = test system: drug-resistant cell lines; parameters: method as in Harrison et al, 1991; conditions: ref Harrison et al, 1991, cited from earlier work
[3] = parameters: method as in Reid et al, 1992; conditions: ref Reid et al, 1992; cited from earlier work
[4] = in vivo
Description: British Joumal of Cancer (1998) 77(5), 808-81 1 ? […] Penclomedine administration by 1-h intravenous infusion on 5 consecutive days was repeated 3 weekly in the absence of dose-limiting toxicity (DLT) or disease progression. Five dose levels were investigated (22.5-340 mg m-2 day-'). Eight men and eight women were entered, median age 59 years (range 39-73 years), with good performance status (ECOG 0/1) in 11 patients. A total of 13 out of 16 patients had received previous chemotherapy. […] Neurotoxicity developed during the 1-h infusion and persisted for a variable period (maximum 5 h) after infusion. […] Penclomedine pharmacokinetic studies confirmed preclinical evidence of extensive apparent distribution (931 m-2) and rapid clearance (41 1 h-1m-2). […] Therefore, an experimental formulation of penclomedine as a 10% oil in water emulsion was developed for intravenous (i.v.) administration. […] Single treatments were effective when administered intra- venously, but the dose used in a rapid bolus push was limited by acute lethality. […] Penclomedine has also been tested in drug-resistant cell lines (doxorubicin, vincristine, cisplatinum, methotrexate, Ara-C and 5-FU) including the multidrug-resistant (MDR) phenotype. […] Preclinical toxicology studies were performed in mice, rats, and dogs. In mice, the maximum tolerated dose (MTD) was 150 mg kg-' (450 mg m-2) as a single i.v. dose and 80 mg kg-' day-' (240 mg m-2 day-'; total dose 1200 mg m-2) on a daily x 5 schedule. […] 808 Phase I trial of penclomedine 809 The aims of this phase I study were: (a) to determine the MTD of penclomedine when administered i.v. once daily for 5 days every 21 days; (b) to identify the toxicity profile of penclomedine and to determine whether this is predictable, tolerable and reversible, and to define dose-limiting toxicities in patients; (c) to determine the pharmacokinetics of penclomedine at different dose levels; (d) to define a safe dose for subsequent phase II studies of anti-tumour activity; and (e) to observe and record any possible therapeutic effectiveness of penclomedine. MATERIALS AND METHODS This was an open non-randomized study with dose escalation that continued until the dose-limiting toxicity was defined. A minimum of three patients were treated at each dose level. […] All patients were required to give written informed consent. Before commencing the study ethical approval was obtained from the Medicine and Clinical Oncology Research Ethics Sub-Committee of Lothian Health Board (ref. MCO/ 105/92) and the study was conducted according to the Helsinki Declaration. This trial was conducted under the auspices of the Cancer Research Campaign Phase I/II Clinical Trials Committee. […]

[5] = test system: cerebellum; parameters: method as in O'Reilly et al, 1996a; conditions: ref O'Reilly et al, 1996a, cited from earlier work
[6] = test system: subrenal capsule xenograft of the human MX-1 mammary carcinoma; parameters: method as in Harrison 1991; conditions: oral 300 mg kg-1 day-1 on days 13, 17 and 21; for 40 days after the last treatment; ref Harrison 1991; cited from earlier work
[7] = test system: human MX-1 mammary tumour xenograft; conditions: cited from earlier work
[8] = cited from earlier work
[9] = parameters: method as in personal communication, AC Smith, NCI; conditions: mice, ref personal communication, AC Smith, NCI, cited from earlier work
[10] = test system: human H82 small cell lung carcinoma xenografts; parameters: method as in Harrison 1991; conditions: oral 445 mg kg-1 day-1; ref Harrison 1991; cited from earlier work
[11] = parameters: method as in Prankerd et al, 1989; conditions: ref Prankerd et al, 1989; cited from earlier work
[12] = Plasma pharmacokinetics in phase I patients (HPLC, two-compartment model); format: in vivo
Description: British Joumal of Cancer (1998) 77(5), 808-81 1 ? […] Penclomedine administration by 1-h intravenous infusion on 5 consecutive days was repeated 3 weekly in the absence of dose-limiting toxicity (DLT) or disease progression. Five dose levels were investigated (22.5-340 mg m-2 day-'). Eight men and eight women were entered, median age 59 years (range 39-73 years), with good performance status (ECOG 0/1) in 11 patients. A total of 13 out of 16 patients had received previous chemotherapy. […] Neurotoxicity developed during the 1-h infusion and persisted for a variable period (maximum 5 h) after infusion. […] Penclomedine pharmacokinetic studies confirmed preclinical evidence of extensive apparent distribution (931 m-2) and rapid clearance (41 1 h-1m-2). […] Therefore, an experimental formulation of penclomedine as a 10% oil in water emulsion was developed for intravenous (i.v.) administration. […] Single treatments were effective when administered intra- venously, but the dose used in a rapid bolus push was limited by acute lethality. […] Penclomedine has also been tested in drug-resistant cell lines (doxorubicin, vincristine, cisplatinum, methotrexate, Ara-C and 5-FU) including the multidrug-resistant (MDR) phenotype. […] Preclinical toxicology studies were performed in mice, rats, and dogs. In mice, the maximum tolerated dose (MTD) was 150 mg kg-' (450 mg m-2) as a single i.v. dose and 80 mg kg-' day-' (240 mg m-2 day-'; total dose 1200 mg m-2) on a daily x 5 schedule. […] 808 Phase I trial of penclomedine 809 The aims of this phase I study were: (a) to determine the MTD of penclomedine when administered i.v. once daily for 5 days every 21 days; (b) to identify the toxicity profile of penclomedine and to determine whether this is predictable, tolerable and reversible, and to define dose-limiting toxicities in patients; (c) to determine the pharmacokinetics of penclomedine at different dose levels; (d) to define a safe dose for subsequent phase II studies of anti-tumour activity; and (e) to observe and record any possible therapeutic effectiveness of penclomedine. MATERIALS AND METHODS This was an open non-randomized study with dose escalation that continued until the dose-limiting toxicity was defined. A minimum of three patients were treated at each dose level. […] All patients were required to give written informed consent. Before commencing the study ethical approval was obtained from the Medicine and Clinical Oncology Research Ethics Sub-Committee of Lothian Health Board (ref. MCO/ 105/92) and the study was conducted according to the Helsinki Declaration. This trial was conducted under the auspices of the Cancer Research Campaign Phase I/II Clinical Trials Committee. […] Adequate bone marrow, hepatic and renal function was required (WBC > 3 x 109 1-1, platelet count > 100 x 109 1-1, serum creatinine < 120 gmmol 1-l, bilirubin < 30 gmol 1-1, and other liver function tests within twice the upper limit of normal (unless known to be related to liver metastases)). Patients were deemed ineligible in the event of pregnancy or lactation, previous chemotherapy or radiotherapy within the last 4 weeks (6 weeks for nitrosoureas or mitomycin C), the presence of another non-malignant disease that in the opinion of the investi- gator was incompatible with this protocol, concurrent administra- tion of another investigational drug, or cytotoxic, hormonal or biological therapy. Patients with brain metastases or primary brain tumours were excluded and also patients with epilepsy or chronic neurological disorders that might interfere with the assessment of neurological toxicity. Penclomedine was formulated as a de novo emulsion (in 100 ml: soybean oil, […]; lecithin, 30 mg; glycerin 20 mg and water for injection) and stored as intact vials under refrigeration (2-8?C). Penclomedine emulsions were diluted up to 1:10 using 5% dextrose solution. […] Penclomedine was supplied by the NCI DCT under the special foreign exemption mechanism established with the FDA. […]

[13] = parameters: method as in Reid et al, 1992; conditions: ref Reid et al, 1992, cited from earlier work
[14] = test system: malignancy; assay: Phase I study: tumour response (UICC criteria); format: in vivo; conditions: 16 patients, all dose levels
Description: British Joumal of Cancer (1998) 77(5), 808-81 1 ? […] Penclomedine administration by 1-h intravenous infusion on 5 consecutive days was repeated 3 weekly in the absence of dose-limiting toxicity (DLT) or disease progression. Five dose levels were investigated (22.5-340 mg m-2 day-'). Eight men and eight women were entered, median age 59 years (range 39-73 years), with good performance status (ECOG 0/1) in 11 patients. A total of 13 out of 16 patients had received previous chemotherapy. […] Neurotoxicity developed during the 1-h infusion and persisted for a variable period (maximum 5 h) after infusion. […] Penclomedine pharmacokinetic studies confirmed preclinical evidence of extensive apparent distribution (931 m-2) and rapid clearance (41 1 h-1m-2). […] Therefore, an experimental formulation of penclomedine as a 10% oil in water emulsion was developed for intravenous (i.v.) administration. […] Single treatments were effective when administered intra- venously, but the dose used in a rapid bolus push was limited by acute lethality. […] Penclomedine has also been tested in drug-resistant cell lines (doxorubicin, vincristine, cisplatinum, methotrexate, Ara-C and 5-FU) including the multidrug-resistant (MDR) phenotype. […] Preclinical toxicology studies were performed in mice, rats, and dogs. […]

[15] = test system: mouse CD8F, mammary carcinoma; parameters: method as in Plowman et al, 1989; conditions: ref Plowman et al, 1989; cited from earlier work
[16] = mean of 10 patients, 150-340 mg m-2 day-1, initial 24 h

COc1nc(C(Cl)(Cl)Cl)c(Cl)c(OC)c1Cl [penclomedine, 3,5-Dichloro-2,4-dimethoxy-6-(trichloromethyl)pyridine]
chemical species found in rat brain [1]: predominant chemical species
activity in resistant versus wild-type cell lines ([2]; lines resistant to doxorubicin, vincristine, cisplatinum, methotrexate, Ara-C and 5-FU, including MDR phenotype): equivalent activity
sensitivity of AMSA-resistant line [2]: collaterally sensitive
sensitivity of L-PAM-resistant line [2]: resistant
in vitro metabolism [3]: subject to metabolism under both oxidative and reductive conditions
persistence of neurotoxicity after infusion (maximum) ([4]; both, human): ≤ 5 h
dose at which dose-limiting toxicity occurred ([4]; both, human, iv, 5 days): 340 mg m-2 day-1
antiproliferative toxicities (myelosuppression, mucositis) [4]: No antiproliferative toxicities were noted
dose-limiting toxicity (DLT) ([4]; iv): Neurotoxicity (cerebellar ataxia and dizziness)
cerebellar finding in preclinical models ([5]; after intraperitoneal administration): Purkinje cell loss
single dose producing visible pathological changes in the cerebellum ([5]; rats, intraperitoneal injection, may be irreversible): ≥ 150 mg kg-1
tumour regression [6]: complete regression of all tumours
tumour-free survivors ([7]; advanced stage MX-1 mammary carcinoma, oral 135 mg kg-1 day-1 for 5 days, oil in water emulsion, ref Harrison et al, 1991): ten out of ten
anti-tumour activity ([7]; human MX-1 mammary tumour xenograft, ref Plowman et al, 1989): good activity
toxicity at the MTD ([8]; beagle dogs, 90 mg kg-1, ref Dixit et al, 1992): reversible myelosuppression
plasma penclomedine concentrations ([8]; beagle dogs, 90 mg kg-1 dose level, not associated with neurotoxicity, ref Dixit et al, 1992): 6 to 9 µg/mL
maximum tolerated dose (MTD) ([8]; beagle dogs, single 5-h infusion, ref Dixit et al, 1992): 90 mg/kg
toxicity at higher dosages ([8]; dog, in vivo): dose-limiting neurotoxicity
dose-limiting toxicity ([9]; daily x 5 schedule): bone marrow suppression
maximum tolerated dose (MTD), total dose ([9]; daily x 5 schedule): 1200 mg m-2
dose-limiting toxicity ([9]; single dose schedule): neurological
complete regressions [10]: six out of ten
partial regressions [10]: four out of ten
solubility in non-polar solvents and lipids [11]: soluble
solubility in water [11]: poorly soluble
dose dependence of total body clearance ([12]; 150-340 mg m-2 day-1): did not vary with dose
metabolites in plasma of patients ([12]; human, in vivo): not detected
apparent distribution volume (mean Vc + Vp) ([12]; human, in vivo, iv): 93 l m-2
half-life ([12]; human, in vivo, patients, read-out: apparent elimination phase half-life (t1/2 beta) (converted)): 2.4 h
half-life ([12]; human, in vivo, patients, read-out: initial distribution phase half-life (t1/2 alpha)): 0.2 h
Cld (distributional clearance), mean [12, 16]: 43 l h-1 m-2
Clt (total body clearance), mean [12, 16]: 41 l h-1 m-2
clearance ([12]; patients, i.v. infusion, abstract): 41 l h-1 m-2
metabolism of radiolabelled penclomedine ([13]; after both i.v. and oral administration): extensive
clearance ([13]; mice, parent drug): 114 ml min-m m-2
half-life ([13]; mice, parent drug): 1.15 h
volume of distribution ([13]; mice, parent drug): 4.8 l m-2
oral bioavailability of the parent compound ([13]; mice): 2%
anti-tumour responses [14]: no anti-tumour responses were documented
anti-tumour activity [15]: good activity
